Experimental findings from the supplement of paper PMC10307832 are described below.

Holding throughout (assay): relative viability (nuclei count vs DMSO), 5 days (fraction); higher = more cells survive
Compound in the assay “VE-821 + Foretinib”: CS(=O)(=O)c1ccc(-c2cnc(N)c(C(=O)Nc3ccccc3)n2)cc1 [VE-821] + COc1cc2c(Oc3ccc(NC(=O)C4(C(=O)Nc5ccc(F)cc5)CC4)cc3F)ccnc2cc1OCCCN1CCOCC1 [Foretinib] (partner 0.25 µM)
In outline:
(§1)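 A single step with final 0.05% Triton X-100, 1% formaldehyde and 1 ug/ml Hoechst fixed the cells and stained nuclei 5 days after treatment. Lung cancer cell lines in 1536-well plates had been treated by pin tool the day after seeding with one drug alone or a fixed anchor-drug dose plus five library-drug doses (not always all listed) in √10 steps, and nuclei were counted on 4× images. Relative viability is the ratio of nuclei in treated wells to nuclei in vehicle wells, taken as the median of duplicate plates.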

Compound in the assay “Ruxolitinib + Linsitinib”: N#CC[C@H](C1CCCC1)n1cc(-c2ncnc3[nH]ccc23)cn1 [Ruxolitinib] + C[C@]1(O)C[C@@H](c2nc(-c3ccc4ccc(-c5ccccc5)nc4c3)c3c(N)nccn32)C1 [Linsitinib] (partner 1 µM)
In a few lines: as §1

Compound in the assay “Ruxolitinib + Tozasertib”: N#CC[C@H](C1CCCC1)n1cc(-c2ncnc3[nH]ccc23)cn1 [Ruxolitinib] + Cc1cc(Nc2cc(N3CCN(C)CC3)nc(Sc3ccc(NC(=O)C4CC4)cc3)n2)n[nH]1 [Tozasertib] (partner 0.1 µM)
In a few lines:
as §1

Compound in the assay “VE-821 + Linsitinib”: CS(=O)(=O)c1ccc(-c2cnc(N)c(C(=O)Nc3ccccc3)n2)cc1 [VE-821] + C[C@]1(O)C[C@@H](c2nc(-c3ccc4ccc(-c5ccccc5)nc4c3)c3c(N)nccn32)C1 [Linsitinib] (partner 1 µM)
In outline: as §1

Take NCI-H2347: the relative viability with VE-821 + Foretinib (first compound 0.08 µM) worked out at 0.542; with VE-821 + Foretinib (first compound 0.253 µM), 0.995; with VE-821 + Foretinib (first compound 0.8 µM), 0.633; with VE-821 + Foretinib (first compound 2.53 µM), 1.03; in the assay with VE-821 + Foretinib (first compound 8 µM) it was 0.946; with Ruxolitinib + Linsitinib (first compound 0.08 µM) it was 0.893. Besides, the relative viability in the assay with Ruxolitinib + Linsitinib (first compound 0.253 µM) was 0.939; in the assay with Ruxolitinib + Linsitinib (first compound 0.8 µM) it was 1.05; with Ruxolitinib + Linsitinib (first compound 2.53 µM), 0.886; with Ruxolitinib + Linsitinib (first compound 8 µM), 0.965; with Ruxolitinib + Tozasertib (first compound 0.08 µM), 0.612; with Ruxolitinib + Tozasertib (first compound 0.253 µM) it was 0.561. Moreover, the relative viability with Ruxolitinib + Tozasertib (first compound 0.8 µM) was 0.554; in the assay with Ruxolitinib + Tozasertib (first compound 2.53 µM), 0.725; with Ruxolitinib + Tozasertib (first compound 8 µM), 0.701; with VE-821 + Linsitinib (first compound 0.08 µM), 1.02; with VE-821 + Linsitinib (first compound 0.253 µM) it was 1.05; in the assay with VE-821 + Linsitinib (first compound 0.8 µM), 1.07. Further, the relative viability with VE-821 + Linsitinib (first compound 2.53 µM) amounted to 1.21; with VE-821 + Linsitinib (first compound 8 µM) it was 1.06.

Take NCI-H2405: the relative viability with VE-821 + Foretinib (first compound 0.08 µM) was determined as 1.09; with VE-821 + Foretinib (first compound 0.253 µM), 1.06; with VE-821 + Foretinib (first compound 0.8 µM), 0.993; in the assay with VE-821 + Foretinib (first compound 2.53 µM) it was 1.09; with VE-821 + Foretinib (first compound 8 µM), 1.12; with Ruxolitinib + Linsitinib (first compound 0.253 µM), 0.779. For the same cell line, the relative viability in the assay with Ruxolitinib + Linsitinib (first compound 0.8 µM) worked out at 1.1; with Ruxolitinib + Linsitinib (first compound 2.53 µM) it was 0.528; with Ruxolitinib + Linsitinib (first compound 8 µM), 0.632; with Ruxolitinib + Tozasertib (first compound 0.253 µM), 0.787; with Ruxolitinib + Tozasertib (first compound 0.8 µM) it was 0.833; with Ruxolitinib + Tozasertib (first compound 2.53 µM), 0.758. Besides, the relative viability in the assay with Ruxolitinib + Tozasertib (first compound 8 µM) amounted to 0.604; with VE-821 + Linsitinib (first compound 0.08 µM), 0.881; with VE-821 + Linsitinib (first compound 0.253 µM), 0.943; with VE-821 + Linsitinib (first compound 0.8 µM) it was 0.724; with VE-821 + Linsitinib (first compound 2.53 µM), 1.09; with VE-821 + Linsitinib (first compound 8 µM), 0.693.

Consider NCI-H3122, for which the relative viability is 0.977 in the assay with VE-821 + Foretinib (first compound 0.08 µM); 0.995 with VE-821 + Foretinib (first compound 0.253 µM); 0.959 with VE-821 + Foretinib (first compound 0.8 µM); 0.986 with VE-821 + Foretinib (first compound 2.53 µM); 0.925 in the assay with VE-821 + Foretinib (first compound 8 µM); 1.09 with Ruxolitinib + Linsitinib (first compound 0.08 µM). Further, the relative viability came out at 1.06 with Ruxolitinib + Linsitinib (first compound 0.253 µM); 1.02 in the assay with Ruxolitinib + Linsitinib (first compound 0.8 µM); 0.815 with Ruxolitinib + Linsitinib (first compound 2.53 µM); 1.04 with Ruxolitinib + Linsitinib (first compound 8 µM); 0.35 with Ruxolitinib + Tozasertib (first compound 0.253 µM); 0.493 with Ruxolitinib + Tozasertib (first compound 0.8 µM). The relative viability with Ruxolitinib + Tozasertib (first compound 2.53 µM) amounted to 0.439; in the assay with Ruxolitinib + Tozasertib (first compound 8 µM), 0.441; in the assay with VE-821 + Linsitinib (first compound 0.08 µM) it was 1.06; with VE-821 + Linsitinib (first compound 0.253 µM) it was 0.955; with VE-821 + Linsitinib (first compound 0.8 µM), 0.989; in the assay with VE-821 + Linsitinib (first compound 2.53 µM), 1.05. The relative viability with VE-821 + Linsitinib (first compound 8 µM) worked out at 0.967.

With PC-3 [JPC-3], the relative viability with VE-821 + Foretinib (first compound 0.08 µM) was found to be 1.12; in the assay with VE-821 + Foretinib (first compound 0.253 µM) it was 0.947; with VE-821 + Foretinib (first compound 0.8 µM), 1.07; in the assay with VE-821 + Foretinib (first compound 2.53 µM), 1.06; with VE-821 + Foretinib (first compound 8 µM), 0.976; with Ruxolitinib + Linsitinib (first compound 0.08 µM), 0.882. Besides, the relative viability was 0.973 in the assay with Ruxolitinib + Linsitinib (first compound 0.253 µM); 0.973 with Ruxolitinib + Linsitinib (first compound 0.8 µM); 0.963 with Ruxolitinib + Linsitinib (first compound 2.53 µM); 0.872 with Ruxolitinib + Linsitinib (first compound 8 µM); 0.77 in the assay with Ruxolitinib + Tozasertib (first compound 0.08 µM); 0.894 with Ruxolitinib + Tozasertib (first compound 0.253 µM). Also, the relative viability in the assay with Ruxolitinib + Tozasertib (first compound 0.8 µM) stood at 0.862; with Ruxolitinib + Tozasertib (first compound 2.53 µM), 0.824; in the assay with Ruxolitinib + Tozasertib (first compound 8 µM), 0.859; with VE-821 + Linsitinib (first compound 0.08 µM), 0.923; with VE-821 + Linsitinib (first compound 0.253 µM), 0.932; with VE-821 + Linsitinib (first compound 0.8 µM), 1.05. The relative viability in the assay with VE-821 + Linsitinib (first compound 2.53 µM) was 1.07; in the assay with VE-821 + Linsitinib (first compound 8 µM), 1.01.

Take PC-14: the relative viability with VE-821 + Foretinib (first compound 0.08 µM) was 1.1; with VE-821 + Foretinib (first compound 0.253 µM) it was 0.913; in the assay with VE-821 + Foretinib (first compound 0.8 µM) it was 0.974; with VE-821 + Foretinib (first compound 2.53 µM) it was 1.02; in the assay with VE-821 + Foretinib (first compound 8 µM), 0.984; with Ruxolitinib + Linsitinib (first compound 0.253 µM) it was 0.959. In addition, the relative viability worked out at 1.04 in the assay with Ruxolitinib + Linsitinib (first compound 0.8 µM); 0.794 with Ruxolitinib + Linsitinib (first compound 2.53 µM); 0.69 with Ruxolitinib + Linsitinib (first compound 8 µM); 0.677 in the assay with Ruxolitinib + Tozasertib (first compound 0.253 µM); 0.58 with Ruxolitinib + Tozasertib (first compound 0.8 µM); 0.471 with Ruxolitinib + Tozasertib (first compound 2.53 µM). For the same cell line, the relative viability with Ruxolitinib + Tozasertib (first compound 8 µM) worked out at 0.483; with VE-821 + Linsitinib (first compound 0.08 µM), 1.02; with VE-821 + Linsitinib (first compound 0.253 µM), 0.911; with VE-821 + Linsitinib (first compound 0.8 µM) it was 0.95; with VE-821 + Linsitinib (first compound 2.53 µM), 1.02; with VE-821 + Linsitinib (first compound 8 µM), 0.971.
